Source: patent publication US20240043420A1, “7-AZAINDOLE COMPOUNDS FOR INHIBITION OF BCR-ABL TYROSINE KINASES” (EnLiven Therapeutics, Inc., priority 2020, published 2024)

Key:
K562 cells = assay: K562 cell proliferation assay (CellTiter-Glo); format: cell-based; conditions: 72 hours, CellTiter-Glo viability, read-out: Cell Line (IC50, nM) K562
Description: (§1) K562 and HL60 cells, cultured in Iscove's Modified Dulbecco's Media (IMDM) supplemented with 10% FBS, were harvested at 50-80% confluency and plated at 2,000 cells per well (K562) or 1,500 cells per well (HL60) in 384-well tissue culture plates. A subset of wells contained media only (low control, LC). Compounds were serially diluted in DMSO. 40 nL of compound or DMSO only (high control, HC) were added to each well using an Echo 550 liquid handler (Labcyte). The plates were placed in a 37° C. incubator with 5% CO2 for 72 hours. Cell viability was measured using a CellTiter-Glo luminescent cell viability assay (Promega), which allows for relative quantification of metabolically active cells by luminescence-based measurements of intracellular ATP concentrations. Briefly, plates were removed from the incubator and equilibrated for 15 minutes at room temperature prior to the addition of 40 μL of CellTiter-Glo reagent. Plates were then incubated for 30 minutes at room temperature. Luminescence was measured using an EnSpire plate reader (Perkin Elmer). As noted above, luminescence values from wells with DMSO only or media without cells were used as high and low controls (HC and LC), respectively. Normalized percent viability was calculated as follows: percent viability=100×(Lumsample−LumLC)/(LumHC−LumLC).

ABL1 = molecular target: T1, ABL1 (Homo sapiens, UniProt P00519); assay: Luminescence-based ABL kinase assay (ADP-Glo, 300 μM ATP); format: biochemical
T1 construct: purchased Carna Biosciences
Description: (§2) Kinase activity of ABL1 was measured using the ADP-Glo system (Promega), which measures formation of ADP using a luminescence-based method. Compounds were serially diluted in DMSO. 20 nL of compound or DMSO only (high control, HC) were added to a 384-well plate (OptiPlate-384, PerkinElmer) using an Echo550 liquid handler (Labcyte). 15 μL of kinase solution (10 mM MgCl2, 0.01% Brij-35, 2 mM DTT, 0.05% BSA, 1 mM EGTA, 50 mM HEPES pH 7.5, and 3.325 nM ABL1 [Carna Biosciences]) were added to each well of the 384-well plate containing the compounds. No enzyme control wells were included (low control, LC). The plate was incubated at room temperature for 30 minutes. 5 μL of a second solution containing 10 mM MgCl2, 0.01% Brij-35, 2 mM DTT, 0.05% BSA, 1 mM EGTA, 50 mM HEPES pH 7.5, 6 μM Peptide 2 (Perkin Elmer, Cat No 760346), and 1.2 mM ATP were added to each well to start the kinase reaction. The plate was incubated for 90 minutes at room temperature. 20 μL of ADP-Glo reagent (Promega) were then added to each well and the plate was incubated for 40 minutes at room temperature. 40 μL of kinase detection reagent (Promega) was added to each well and the plate was incubated for an additional 45 minutes at room temperature. During this step, ADP was converted to ATP, a substrate for luciferase, to produce luminescence signal. Luminescence was measured on an Envision plate reader (Perkin Elmer). Luminescence signal positively correlates with kinase activity. The percent kinase activity was calculated as follows: percent kinase activity=100×(Lumsample−LumLC)/(LumHC−LumLC). As noted above, DMSO only and no enzyme wells were used as high and low controls, respectively. IC50 values were calculated using the XLFit software.

ABL1 (T315I) = ABL1 (T315I) (Homo sapiens, UniProt P00519, T315I); assay: Luminescence-based ABL kinase assay (ADP-Glo, 300 μM ATP), T315I mutant; format: biochemical
Description: as §2

HL60 cells = assay: HL60 cell proliferation assay (CellTiter-Glo); format: cell-based; conditions: Homo sapiens, HL-60, 72 h, CellTiter-Glo viability, read-out: Cell Line (IC50, nM) HL60
Description: as §1

IC50 (K562 cells) [nM] | IC50 (ABL1) [nM] | IC50 (ABL1 (T315I)) [nM] | IC50 (HL60 cells) [nM] | Compound
 | 86.4 | 20.6 |  | O=C(Nc1ccc2c(-c3c(F)cccc3F)c[nH]c2n1)C1CC1 [Compound 46, N-(3-(2,6-difluorophenyl)-1H-pyrrolo[2,3-b]pyridin-6-yl)cyclopropanecarboxamide]
 | 114 | 1030 |  | O=C(Nc1ccc2c(-c3ccn4ccnc4c3)c[nH]c2n1)C1CC1 [Compound 55, N-(3-[imidazo[1,2-a]pyridin-7-yl]-1H-pyrrolo[2,3-b]pyridin-6-yl)cyclopropanecarboxamide]
 | 1090 | 3870 |  | Cn1cc(-c2c[nH]c3nc(NC(=O)C4CC4)ccc23)ccc1=O [Compound 57, N-[3-(1-methyl-6-oxopyridin-3-yl)-1H-pyrrolo[2,3-b]pyridin-6-yl]cyclopropanecarboxamide]
 | 158 | 8700 |  | CN(C)c1ncccc1-c1c[nH]c2nc(NC(=O)C3CC3)ccc12 [Compound 65, N-(3-(2-(dimethylamino)pyridin-3-yl)-1H-pyrrolo[2,3-b]pyridin-6-yl)cyclopropanecarboxamide]
 | 98.2 | 105 |  | COc1c(F)cccc1-c1n[nH]c2nc(NC(=O)[C@@H]3C[C@@H]3F)ccc12 [Compound 100, (1S,2S)-2-fluoro-N-(3-(3-fluoro-2-methoxyphenyl)-1H-pyrazolo[3,4-b]pyridin-6-yl)cyclopropane-1-carboxamide]
 | 65.5 | 60.8 |  | COc1c(F)cc(F)c(OC)c1-c1c[nH]c2nc(NC(=O)[C@@H]3C[C@@H]3F)ccc12 [Compound 120, (1S,2S)—N-[3-(3,5-difluoro-2,6-dimethoxyphenyl)-1H-pyrrolo[2,3-b]pyridin-6-yl]-2-fluorocyclopropane-1-carboxamide]
 | 73.4 | 19.9 |  | COc1ccccc1-c1c[nH]c2nc(NC(=O)NCC3CC3)ccc12 [Compound 122, 3-(cyclopropylmethyl)-1-[3-(2-methoxyphenyl)-1H-pyrrolo[2,3-b]pyridin-6-yl]urea]
 | 56.5 | 17.6 |  | COc1ccccc1-c1c[nH]c2nc(NC(=O)NC3CC3)ccc12 [Compound 123, 3-cyclopropyl-1-[3-(2-methoxyphenyl)-1H-pyrrolo[2,3-b]pyridin-6-yl]urea]
 | 32.9 | 35.8 |  | COc1cccc(OC)c1-c1c[nH]c2nc(NC(=O)NCC3CNC3)ccc12 [Compound 129, 1-(azetidin-3-ylmethyl)-3-(3-(2,6-dimethoxyphenyl)-1H-pyrrolo[2,3-b]pyridin-6-yl)urea]

Continued, compound first:

Compound | IC50 (K562 cells) [nM] | IC50 (ABL1) [nM] | IC50 (ABL1 (T315I)) [nM] | IC50 (HL60 cells) [nM]
COc1cccc(OC)c1-c1c[nH]c2nc(NC(=O)C3CC3CCN(C)C)ccc12 (single isomer, unassigned) [Example S205, Enantiomer 1, N-(3-(2,6-dimethoxyphenyl)-1H-pyrrolo[2,3-b]pyridin-6-yl)-2-(2-(dimethylamino)ethyl)cyclopropane-1-carboxamide] | 21.5 | 10.6 | 15 | 
COc1cccc(OC)c1-c1c[nH]c2nc(NC(=O)C3CC3CCN(C)C)ccc12 (single isomer, unassigned) [Example S205, Enantiomer 2, N-(3-(2,6-dimethoxyphenyl)-1H-pyrrolo[2,3-b]pyridin-6-yl)-2-(2-(dimethylamino)ethyl)cyclopropane-1-carboxamide] | 55.3 | 15 | 20.9 | 
COc1nccc(OC2CC2)c1-c1c[nH]c2nc(NC(=O)C3CC3OCCN(C)C)ccc12 (single isomer, unassigned) [Example S220, Enantiomer 1, N-(3-(4-cyclopropoxy-2-methoxypyridin-3-yl)-1H-pyrrolo[2,3-b]pyridin-6-yl)-2-(2-(dimethylamino)ethoxy)cyclopropane-1-carboxamide] | 24.9 |  |  | > 10000
COc1cc2cn[nH]c2cc1-c1c[nH]c2nc(NC(=O)[C@H]3C[C@H]3F)ccc12 [Compound 59, (1R,2R)-2-fluoro-N-[3-(5-methoxy-1H-indazol-6-yl)-1H-pyrrolo[2,3-b]pyridin-6-yl]cyclopropane-1-carboxamide] |  | 8.62 | 11 | 
COc1c(-c2c[nH]c3nc(NC(=O)[C@@H]4C[C@@H]4F)ccc23)ccc2nccn12 [Compound 73, (1S,2S)-2-fluoro-N-(3-(5-methoxyimidazo[1,2-a]pyridin-6-yl)-1H-pyrrolo[2,3-b]pyridin-6-yl)cyclopropane-1-carboxamide] |  | 2460 | > 10000 | 
COc1ncc(F)cc1-c1c[nH]c2nc(NC(=O)NCCN(C)C)ccc12 [Compound 80, 3-[2-(dimethylamino)ethyl]-1-[3-(5-fluoro-2-methoxypyridin-3-yl)-1H-pyrrolo[2,3-b]pyridin-6-yl]urea] |  | 1050 | 659 | 
COc1ncccc1-c1c(C)[nH]c2nc(NC(=O)[C@@H]3C[C@@H]3F)ccc12 [Compound 89, (1S,2S)-2-fluoro-N-(3-(2-methoxypyridin-3-yl)-2-methyl-1H-pyrrolo[2,3-b]pyridin-6-yl)cyclopropane-1-carboxamide] |  | 337 | 219 | 
COc1nc2[nH]ccc2cc1-c1c[nH]c2nc(NC(=O)[C@@H]3C[C@@H]3F)ccc12 [Compound 93, (1S,2S)-2-fluoro-N-(6′-methoxy-1H,1′H-[3,5′-bipyrrolo[2,3-b]pyridin]-6-yl)cyclopropane-1-carboxamide] |  | 5.3 | 2.94 | 
COc1ccccc1-c1c[nH]c2nc(NC(=O)NCCN(C)C)ccc12 [Compound 97, 3-[2-(dimethylamino)ethyl]-1-[3-(2-methoxyphenyl)-1H-pyrrolo[2,3-b]pyridin-6-yl]urea] |  | 199 | 61.6 | 
COc1ccccc1-c1c[nH]c2nc(NC(=O)NCCC#N)ccc12 [Compound 104, 3-(2-cyanoethyl)-1-[3-(2-methoxyphenyl)-1H-pyrrolo[2,3-b]pyridin-6-yl]urea] |  | 102 | 29.1 | 
COc1c(-c2c[nH]c3nc(NC(=O)[C@@H]4C[C@@H]4F)ccc23)ccn2ccnc12 [Compound 114, (1S,2S)-2-fluoro-N-(3-[8-methoxyimidazo[1,2-a]pyridin-7-yl]-1H-pyrrolo[2,3-b]pyridin-6-yl)cyclopropane-1-carboxamide] |  | 51.4 | 150 | 
COc1nc2nccn2cc1-c1c[nH]c2nc(NC(=O)[C@@H]3C[C@@H]3F)ccc12 [Compound 128, (1S,2S)-2-fluoro-N-(3-(7-methoxyimidazo[1,2-a]pyrimidin-6-yl)-1H-pyrrolo[2,3-b]pyridin-6-yl)cyclopropane-1-carboxamide] |  | 24.9 | 97.1 | 
COc1c(-c2c[nH]c3nc(NC(=O)[C@@H]4C[C@@H]4F)ccc23)ccc2ncnn12 [Compound 134, (1S,2S)-2-fluoro-N-(3-[5-methoxy-[1,2,4]triazolo[1,5-a]pyridin-6-yl]-1H-pyrrolo[2,3-b]pyridin-6-yl)cyclopropane-1-carboxamide] |  | 64.8 | 227 | 
COc1cc2scnc2cc1-c1c[nH]c2nc(NC(=O)NCCN3CCNCC3)ccc12 [Compound 140, 3-[3-(6-methoxy-1,3-benzothiazol-5-yl)-1H-pyrrolo[2,3-b]pyridin-6-yl]-1-[2-(piperazin-1-yl)ethyl]urea] |  | 30.6 | 82.5 | 
COc1nc2[nH]ccc2cc1-c1c[nH]c2nc(NC(=O)[C@H]3C[C@@H]3F)ccc12 [Compound 141, (1R,2S)-2-fluoro-N-(6′-methoxy-1H,1′H-[3,5′-bipyrrolo[2,3-b]pyridin]-6-yl)cyclopropane-1-carboxamide] |  | 45.5 | 31.2 | 
